Measurements published in ChEMBL document CHEMBL1201862, “PubChem BioAssay data set” (2004).
Where “and” joins values, the source holds several entries; their conditions need not be identical. Equal entries are not always repeated.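 Five concentrations, 48 hours, 96-well plates. GI50 is the concentration that inhibits growth by half.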 Calls of active or inactive are those of the source. No stated cut-off is given here; in the data, active = GI50 up to about 1.1 µM and inactive = higher.

Columns and labels:
Assay in all cases: inhibition of tumour cell growth, NCI panel, 48 h
786-0 = test system: 786-0
A498 = test system: A498
A549 = test system: A549
ACHN = test system: ACHN
BT-549 = test system: BT-549
CCRF-CEM = test system: CCRF-CEM
COLO 205 = test system: COLO 205
DU-145 = test system: DU-145
EKVX = test system: EKVX
HCC 2998 = test system: HCC 2998
HCT-116 = test system: HCT-116
HCT-15 = test system: HCT-15
HL-60 = test system: HL-60
HOP-92 = test system: HOP-92
HT-29 = test system: HT-29
Hs-578T = test system: Hs-578T
IGROV-1 = test system: IGROV-1
K562 = test system: K562
KM12 = test system: KM12
LOX IMVI = test system: LOX IMVI
M14 = test system: M14
MCF7 = test system: MCF7
MDA-MB-231 = test system: MDA-MB-231
MDA-MB-435 = test system: MDA-MB-435
MDA-N = test system: MDA-N
MOLT-4 = test system: MOLT-4
Malme-3M = test system: Malme-3M
NCI-H226 = test system: NCI-H226
NCI-H23 = test system: NCI-H23
NCI-H460 = test system: NCI-H460
NCI-H522 = test system: NCI-H522
NCI/ADR-RES = test system: NCI/ADR-RES
OVCAR-3 = test system: OVCAR-3
OVCAR-4 = test system: OVCAR-4
OVCAR-5 = test system: OVCAR-5
OVCAR-8 = test system: OVCAR-8
PC-3 = test system: PC-3
SF-268 = test system: SF-268
SF-295 = test system: SF-295
SF-539 = test system: SF-539
SK-MEL-28 = test system: SK-MEL-28
SK-MEL-2 = test system: SK-MEL-2
SK-MEL-5 = test system: SK-MEL-5
SK-OV-3 = test system: SK-OV-3
SN12C = test system: SN12C
SNB-19 = test system: SNB-19
SNB-75 = test system: SNB-75
SW-620 = test system: SW-620
T47D = test system: T47D
TK-10 = test system: TK-10
U-251 = test system: U-251
UACC-257 = test system: UACC-257
UACC-62 = test system: UACC-62
CAKI-1 = test system: CAKI-1
HOP-62 = test system: HOP-62
RXF 393 = test system: RXF 393
UO-31 = test system: UO-31

Measured: GI50

c1ccc2[nH]c(-c3cscn3)nc2c1 [THIABENDAZOLE]
> 100 µM: HCT-15
inactive: 786-0 > 100 µM | A498 > 100 µM | A549 > 100 µM | ACHN > 100 µM | BT-549 > 100 µM | CCRF-CEM > 100 µM | COLO 205 > 100 µM | DU-145 > 100 µM | EKVX > 100 µM | HCC 2998 > 100 µM | HCT-116 > 100 µM | HL-60 > 100 µM | HOP-92 > 100 µM | HT-29 > 100 µM and 77.1 µM | Hs-578T > 100 µM | IGROV-1 > 100 µM | K562 > 100 µM and 83.6 µM | KM12 > 100 µM | LOX IMVI > 100 µM | M14 > 100 µM | MCF7 > 100 µM | MDA-MB-231 > 100 µM | MDA-MB-435 74.3 µM and 44.4 µM | MDA-N 50.4 µM | MOLT-4 > 100 µM | Malme-3M > 100 µM | NCI-H226 > 100 µM | NCI-H23 > 100 µM | NCI-H460 > 100 µM and 54 µM | NCI-H522 > 100 µM | NCI/ADR-RES > 100 µM | OVCAR-3 > 100 µM | OVCAR-4 > 100 µM | OVCAR-5 > 100 µM | OVCAR-8 > 100 µM | PC-3 > 100 µM | SF-268 > 100 µM | SF-295 > 100 µM | SF-539 > 100 µM | SK-MEL-28 > 100 µM | SK-MEL-2 > 100 µM | SK-MEL-5 > 100 µM | SK-OV-3 > 100 µM | SN12C > 100 µM | SNB-19 > 100 µM | SNB-75 > 100 µM | SW-620 > 100 µM | T47D > 100 µM | TK-10 > 100 µM | U-251 > 100 µM | UACC-257 > 100 µM | UACC-62 > 100 µM

O=S(=O)(c1cc(Cl)ccc1Cl)N1CCN(S(=O)(=O)c2cc(Cl)ccc2Cl)CC1
active: SK-MEL-2 0.403 µM | UACC-62 0.489 µM
inactive: 786-0 > 100 µM | A498 > 100 µM | A549 > 100 µM | ACHN > 100 µM | BT-549 > 100 µM | CAKI-1 > 100 µM | DU-145 16.1 µM | HCC 2998 > 100 µM | HCT-116 > 100 µM | HOP-62 > 100 µM | HOP-92 > 100 µM | HT-29 > 100 µM | Hs-578T 19.8 µM | IGROV-1 > 100 µM | K562 > 100 µM | KM12 > 100 µM | M14 > 100 µM | MCF7 > 100 µM | MDA-MB-231 > 100 µM | MDA-MB-435 > 100 µM | MDA-N > 100 µM | MOLT-4 > 100 µM | Malme-3M > 100 µM | NCI-H226 > 100 µM | NCI-H23 4.86 µM | NCI-H460 > 100 µM | NCI-H522 > 100 µM | NCI/ADR-RES > 100 µM | OVCAR-3 > 100 µM | OVCAR-5 16.3 µM | OVCAR-8 > 100 µM | PC-3 > 100 µM | RXF 393 > 100 µM | SF-268 > 100 µM | SF-295 > 100 µM | SF-539 > 100 µM | SK-MEL-28 > 100 µM | SK-MEL-5 > 100 µM | SN12C > 100 µM | SNB-19 > 100 µM | SNB-75 > 100 µM | SW-620 > 100 µM | T47D > 100 µM | TK-10 > 100 µM | U-251 > 100 µM | UACC-257 > 100 µM | UO-31 > 100 µM
> 100 µM: HCT-15
